In ChEMBL document CHEMBL3991601, “The target landscape of clinical kinase drugs” (Science, 2017):
Calls of active or inactive are those of the source. Rule as the data show it, for most assays here: actives have a measured Kd and inactives only a lower limit.

Columns and labels:
[1] = target: Protein kinase C delta type (Homo sapiens, UniProt Q05655)
[2] = target: cAMP-dependent protein kinase catalytic subunit alpha (Homo sapiens, UniProt P17612)
Ephrin type-A receptor 1 = target: T1, Ephrin type-A receptor 1 (Homo sapiens, UniProt P21709)
T1 sequence (P21709 whole entry): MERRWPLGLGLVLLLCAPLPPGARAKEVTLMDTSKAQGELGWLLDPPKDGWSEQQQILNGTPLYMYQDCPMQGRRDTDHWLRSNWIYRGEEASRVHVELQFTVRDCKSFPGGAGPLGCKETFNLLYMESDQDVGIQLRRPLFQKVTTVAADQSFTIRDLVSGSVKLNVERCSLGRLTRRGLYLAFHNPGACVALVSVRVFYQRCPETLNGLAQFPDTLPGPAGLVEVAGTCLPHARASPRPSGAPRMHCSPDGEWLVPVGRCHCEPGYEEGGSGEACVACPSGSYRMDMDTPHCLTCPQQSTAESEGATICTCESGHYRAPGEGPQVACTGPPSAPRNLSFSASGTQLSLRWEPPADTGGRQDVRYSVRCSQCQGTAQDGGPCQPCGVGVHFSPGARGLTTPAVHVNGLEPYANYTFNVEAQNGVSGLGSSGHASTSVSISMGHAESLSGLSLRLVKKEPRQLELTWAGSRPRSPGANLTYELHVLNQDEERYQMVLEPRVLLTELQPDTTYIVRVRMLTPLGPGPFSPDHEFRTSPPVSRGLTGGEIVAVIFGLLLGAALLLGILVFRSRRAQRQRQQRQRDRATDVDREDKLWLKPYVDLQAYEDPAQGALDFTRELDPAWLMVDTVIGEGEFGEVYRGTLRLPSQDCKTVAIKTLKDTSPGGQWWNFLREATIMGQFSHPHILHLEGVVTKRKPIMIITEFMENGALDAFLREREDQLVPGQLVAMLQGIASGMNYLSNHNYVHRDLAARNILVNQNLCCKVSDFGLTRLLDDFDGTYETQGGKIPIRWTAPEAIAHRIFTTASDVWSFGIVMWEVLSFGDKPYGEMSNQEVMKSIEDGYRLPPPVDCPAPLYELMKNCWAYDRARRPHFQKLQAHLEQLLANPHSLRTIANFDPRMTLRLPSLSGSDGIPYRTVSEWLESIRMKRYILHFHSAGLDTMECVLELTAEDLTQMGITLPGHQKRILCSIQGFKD

[3] = target: T2, STE20-related kinase adapter protein alpha (Homo sapiens, UniProt Q7RTN6)
T2 sequence (Q7RTN6 whole entry): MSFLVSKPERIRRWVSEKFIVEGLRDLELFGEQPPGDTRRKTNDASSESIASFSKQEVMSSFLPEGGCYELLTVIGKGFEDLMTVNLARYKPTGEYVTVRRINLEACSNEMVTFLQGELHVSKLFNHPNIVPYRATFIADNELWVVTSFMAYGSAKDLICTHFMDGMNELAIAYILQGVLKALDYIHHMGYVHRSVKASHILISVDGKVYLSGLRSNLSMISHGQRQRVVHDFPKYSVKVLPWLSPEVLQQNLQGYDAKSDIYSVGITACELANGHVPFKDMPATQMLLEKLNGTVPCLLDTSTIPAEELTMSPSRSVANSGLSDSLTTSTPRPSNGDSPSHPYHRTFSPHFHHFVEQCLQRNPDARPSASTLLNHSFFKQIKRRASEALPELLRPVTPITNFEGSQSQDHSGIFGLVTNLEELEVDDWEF

[4] = target: T3, Serine/threonine-protein kinase TAO2 (Homo sapiens, UniProt Q9UL54)
T3 sequence (Q9UL54 whole entry): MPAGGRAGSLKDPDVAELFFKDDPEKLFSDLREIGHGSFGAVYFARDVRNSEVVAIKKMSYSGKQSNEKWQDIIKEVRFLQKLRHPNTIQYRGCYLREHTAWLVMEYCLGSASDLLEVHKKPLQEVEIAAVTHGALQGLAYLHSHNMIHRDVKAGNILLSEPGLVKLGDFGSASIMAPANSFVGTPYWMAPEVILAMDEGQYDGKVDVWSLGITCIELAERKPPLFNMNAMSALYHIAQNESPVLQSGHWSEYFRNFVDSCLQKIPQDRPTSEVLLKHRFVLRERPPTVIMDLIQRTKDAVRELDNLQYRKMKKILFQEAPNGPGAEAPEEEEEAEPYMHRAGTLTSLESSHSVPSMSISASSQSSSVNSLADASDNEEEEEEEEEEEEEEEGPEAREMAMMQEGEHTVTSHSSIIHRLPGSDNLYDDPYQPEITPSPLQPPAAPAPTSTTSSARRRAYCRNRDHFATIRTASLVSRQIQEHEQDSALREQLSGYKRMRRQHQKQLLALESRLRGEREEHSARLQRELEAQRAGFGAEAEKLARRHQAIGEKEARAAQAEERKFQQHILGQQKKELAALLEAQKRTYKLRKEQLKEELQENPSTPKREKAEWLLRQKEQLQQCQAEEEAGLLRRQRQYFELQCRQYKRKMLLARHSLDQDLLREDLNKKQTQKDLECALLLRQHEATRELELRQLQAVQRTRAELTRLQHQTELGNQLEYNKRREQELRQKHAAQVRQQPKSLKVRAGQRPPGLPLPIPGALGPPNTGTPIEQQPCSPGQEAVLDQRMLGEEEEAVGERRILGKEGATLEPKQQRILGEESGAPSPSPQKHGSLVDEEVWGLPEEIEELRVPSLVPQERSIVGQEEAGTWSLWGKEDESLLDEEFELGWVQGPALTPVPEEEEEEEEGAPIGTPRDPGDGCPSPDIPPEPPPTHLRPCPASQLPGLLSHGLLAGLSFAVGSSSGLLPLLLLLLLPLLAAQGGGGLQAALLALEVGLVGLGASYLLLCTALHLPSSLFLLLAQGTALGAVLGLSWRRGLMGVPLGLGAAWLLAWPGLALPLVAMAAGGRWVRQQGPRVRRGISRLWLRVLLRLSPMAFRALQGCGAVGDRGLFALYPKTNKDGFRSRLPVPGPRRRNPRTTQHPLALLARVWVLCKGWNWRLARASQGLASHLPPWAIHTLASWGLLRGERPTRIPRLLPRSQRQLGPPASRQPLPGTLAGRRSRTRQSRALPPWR

[5] = target: Proto-oncogene tyrosine-protein kinase Src (Homo sapiens, UniProt P12931)
Sequence of Proto-oncogene tyrosine-protein kinase Src (P12931 2-536 limits assumed): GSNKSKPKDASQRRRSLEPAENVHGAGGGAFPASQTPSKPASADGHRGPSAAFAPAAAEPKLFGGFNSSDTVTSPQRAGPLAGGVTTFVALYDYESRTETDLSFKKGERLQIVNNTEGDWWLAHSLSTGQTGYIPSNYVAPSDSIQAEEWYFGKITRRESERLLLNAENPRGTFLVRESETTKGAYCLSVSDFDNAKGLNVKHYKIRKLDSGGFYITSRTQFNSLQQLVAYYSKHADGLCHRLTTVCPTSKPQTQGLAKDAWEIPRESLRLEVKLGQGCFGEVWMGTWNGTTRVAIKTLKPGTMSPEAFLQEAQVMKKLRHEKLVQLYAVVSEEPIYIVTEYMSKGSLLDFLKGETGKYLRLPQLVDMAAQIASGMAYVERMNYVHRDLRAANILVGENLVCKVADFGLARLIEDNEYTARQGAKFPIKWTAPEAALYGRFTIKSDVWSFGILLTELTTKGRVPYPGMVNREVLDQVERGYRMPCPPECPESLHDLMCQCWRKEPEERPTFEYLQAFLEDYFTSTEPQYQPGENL
Also: in the data inactive means no Kd found up to 30 µM.

Sequence of Protein kinase C delta type (Q05655 whole entry): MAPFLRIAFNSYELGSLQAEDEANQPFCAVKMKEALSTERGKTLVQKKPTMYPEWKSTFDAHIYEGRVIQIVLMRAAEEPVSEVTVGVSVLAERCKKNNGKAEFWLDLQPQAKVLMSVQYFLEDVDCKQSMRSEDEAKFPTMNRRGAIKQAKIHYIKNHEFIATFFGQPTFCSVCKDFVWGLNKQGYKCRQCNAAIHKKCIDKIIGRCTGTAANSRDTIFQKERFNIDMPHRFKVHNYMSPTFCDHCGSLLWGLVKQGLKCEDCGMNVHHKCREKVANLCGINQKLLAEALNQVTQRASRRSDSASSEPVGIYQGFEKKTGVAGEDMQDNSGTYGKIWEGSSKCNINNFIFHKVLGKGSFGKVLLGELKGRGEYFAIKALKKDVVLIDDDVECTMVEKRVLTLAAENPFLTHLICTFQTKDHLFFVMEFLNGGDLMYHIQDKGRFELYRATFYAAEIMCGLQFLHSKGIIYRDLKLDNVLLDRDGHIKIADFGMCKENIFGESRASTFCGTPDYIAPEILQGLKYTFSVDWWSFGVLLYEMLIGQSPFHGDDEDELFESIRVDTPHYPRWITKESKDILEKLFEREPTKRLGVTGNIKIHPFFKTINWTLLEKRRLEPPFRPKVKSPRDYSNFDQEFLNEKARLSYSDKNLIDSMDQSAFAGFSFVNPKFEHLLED

Row | Kd [1] | Kd [2] | Kd (Ephrin type-A receptor 1) | Kd [3] | Kd [4] | Kd [5] | SMILES
1 | > 30 µM (inactive) | > 30 µM (inactive) | > 30 µM (inactive) | > 30 µM (inactive) | > 30 µM (inactive) | > 30 µM (inactive) | C[C@@H](Oc1cc(C(=O)Nc2ccc(C(=O)N3CCN(C)CC3)cc2)nnc1N)c1c(Cl)ccc(F)c1Cl
2 | 2.47 µM (active) | > 30 µM (inactive) | > 30 µM (inactive) | – | > 30 µM (inactive) | > 30 µM (inactive) | C[C@H]1CNCCCN1S(=O)(=O)c1cccc2cncc(F)c12
3 | > 30 µM (inactive) | > 30 µM (inactive) | > 30 µM (inactive) | > 30 µM (inactive) | > 30 µM (inactive) | 0.491 µM (active) | CCNC(=O)C#Cc1ccc2c(c1)NC(=O)/C2=C(\Nc1ccc(CN(C)C)cc1)c1ccccc1
4 | > 30 µM (inactive) | > 30 µM (inactive) | > 30 µM (inactive) | > 30 µM (inactive) | > 30 µM (inactive) | 0.004 µM | C=CC(=O)N1CCC[C@H](n2c(=O)n(-c3ccc(Oc4ccccc4)cc3)c3c(N)ncnc32)C1
5 | > 30 µM (inactive) | > 30 µM (inactive) | > 30 µM (inactive) | > 30 µM (inactive) | 1.73 µM (active) | > 30 µM (inactive) | Cc1nc2cc(-c3nn(C(C)C)c4ncnc(N)c34)ccc2o1
6 | 5.08 µM (active) | > 30 µM (inactive) | > 30 µM (inactive) | > 30 µM (inactive) | > 30 µM (inactive) | > 30 µM (inactive) | COCc1c(-c2ccc(NC(=O)Nc3cc(C(F)(F)F)ccc3F)c(F)c2)c2c(N)ncnn2c1CN1CCOCC1
7 | > 30 µM (inactive) | > 30 µM (inactive) | > 30 µM (inactive) | > 30 µM (inactive) | > 30 µM (inactive) | 3.55 µM (active) | Nc1ncnc2c1c(-c1cccc(OCc3ccccc3)c1)cn2[C@H]1C[C@@H](CN2CCC2)C1 [AEW-541]
8 | – | > 30 µM (inactive) | > 30 µM (inactive) | > 30 µM (inactive) | > 30 µM (inactive) | > 30 µM (inactive) | COc1cc(Nc2ncc3c(n2)-c2ccc(Cl)cc2C(c2c(F)cccc2OC)=NC3)ccc1C(=O)O [ALISERTIB]
9 | > 30 µM (inactive) | > 30 µM (inactive) | > 30 µM (inactive) | > 30 µM (inactive) | > 30 µM (inactive) | > 30 µM (inactive) | Cc1nc(NC(=O)N2CCC[C@H]2C(N)=O)sc1-c1ccnc(C(C)(C)C(F)(F)F)c1 [ALPELISIB]
10 | > 30 µM (inactive) | > 30 µM (inactive) | > 30 µM (inactive) | > 30 µM (inactive) | > 30 µM (inactive) | > 30 µM (inactive) | C=CC(=O)Nc1cc2c(Nc3ccc(F)c(Cl)c3)ncnc2cc1C#CC(C)(C)N1CCN(C)CC1 [AV-412 FREE BASE]
11 | > 30 µM (inactive) | > 30 µM (inactive) | > 30 µM (inactive) | > 30 µM (inactive) | > 30 µM (inactive) | > 30 µM (inactive) | Cn1cnc2c(F)c(Nc3ccc(Br)cc3F)c(C(=O)NOCCO)cc21 [BINIMETINIB]
12 | > 30 µM (inactive) | > 30 µM (inactive) | > 30 µM (inactive) | > 30 µM (inactive) | > 30 µM (inactive) | > 30 µM (inactive) | CCn1c(C(=O)N(C2CC2)C2CC2)cc2c3c(ncn3C)c(Nc3cc(C)n(C)n3)nc21 [BMS-911543]
13 | > 30 µM (inactive) | > 30 µM (inactive) | > 30 µM (inactive) | – | > 30 µM (inactive) | > 30 µM (inactive) | Cc1nc2cc(-n3ncc(C(=O)c4cc5ccccc5[nH]4)c3N)ccc2[nH]1 [FGFR INHIBITOR DEBIO 1347]
14 | > 30 µM (inactive) | > 30 µM (inactive) | > 30 µM (inactive) | > 30 µM (inactive) | – | – | CCn1cc(-c2ccnc3[nH]c(-c4cccc(CN(C)C)c4)cc23)c(-c2ccc(NC(=O)N(C)C)cc2)n1 [GSK-1070916]
15 | – | – | > 30 µM (inactive) | > 30 µM (inactive) | > 30 µM (inactive) | – | Cc1[nH]c(/C=C2\C(=O)Nc3ccccc32)c(C)c1CCC(=O)O [ORANTINIB]
16 | – | – | > 30 µM (inactive) | > 30 µM (inactive) | > 30 µM (inactive) | – | NC(=O)c1c(OCc2c(F)cc(Br)cc2F)nsc1NC(=O)NCCCCN1CCCC1 [OSI-632]
17 | – | – | > 30 µM (inactive) | > 30 µM (inactive) | 2.05 µM (active) | – | CC(=O)NCC(=O)N1[C@@H]2CC[C@H]1c1ccc(Nc3ncc(C(F)(F)F)c(NC4CCC4)n3)cc12 [PF-03814735]

Row | SMILES | Kd [1] | Kd [2] | Kd (Ephrin type-A receptor 1) | Kd [3] | Kd [4] | Kd [5]
18 | CC(=O)c1cnc2ccc(-c3cc(Cl)c(O)c(Cl)c3)nc2c1N[C@H]1CC[C@H](CN(C)C)CC1 | – | > 30 µM (inactive) | 0.091 µM (active) | > 30 µM (inactive) | 0.01 µM | > 30 µM (inactive)
19 | COc1cc([C@@H]2c3cc4c(cc3[C@H](O)[C@H]3COC(=O)[C@@H]23)OCO4)cc(OC)c1OC [AXL-1717] | > 30 µM (inactive) | > 30 µM (inactive) | > 30 µM (inactive) | > 30 µM (inactive) | > 30 µM (inactive) | > 30 µM (inactive)
20 | CC(C)(C)c1nc(-c2cccc(NS(=O)(=O)c3c(F)cccc3F)c2F)c(-c2ccnc(N)n2)s1 [DABRAFENIB] | > 30 µM (inactive) | – | 0.705 µM | > 30 µM (inactive) | > 30 µM (inactive) | > 30 µM (inactive)
21 | O=C(Nc1cc(C(F)(F)F)cc(C(F)(F)F)c1)c1cc(Cl)ccc1O [IMD-0354] | – | > 30 µM (inactive) | > 30 µM (inactive) | > 30 µM (inactive) | > 30 µM (inactive) | > 30 µM (inactive)
22 | CCOc1cc2ncc(C#N)c(Nc3ccc(F)c(Cl)c3)c2cc1NC(=O)/C=C/CN(C)C [PELITINIB] | – | > 30 µM (inactive) | > 30 µM (inactive) | > 30 µM (inactive) | > 30 µM (inactive) | > 30 µM (inactive)
